Here are results for 5 molecules from patent publication US4332802A, “11-Oxo-11H-pyrido[2,1-b]quinazoline-2-carboxylic acid and salts thereof, antiallergic compositions containing it and methods of suppressing allergic reactions with it” (Boehringer Ingelheim KG, priority 1975, dated 1982).

Like-named read-outs stand apart in the source and are kept apart here.

Data set [1] relates to anaphylactoid dextran reaction in the rat paw. Description: Dextran edema test (anaphylactoid dextran reaction, paw swelling). The data set is classed as in vivo. To be noted: for ED35: 0.5 h, rat, graphic extrapolation; for % Inhibition of swelling: rat paw, dextran, dose of 100 mgm/kg (p.o.). The source says:
The antiallergic activity of the compounds of the present invention was ascertained and compared to that of structurally related known compounds by the anaphylactic dextran reaction method, where
Dextran induces in the rat a de-granulation of mast cells and thus the release of mediator substances such as histamine and serotonin, with consequent edema formation. The reaction manifests itself in a manner similar to anaphylaxis [see Morrison et al., J.exp.Med. 103, 399 (1956)].
Fasted male laboratory rats (Chbb:Thom.SPF) having a body weight of 120-180 gm were used as the test animals; they were initially kept in wire cages, and after provocation of the reaction on chaff. The allergic reaction was released by subplantar injection into the right hind paw of 100 μgm of dextran (mol. wt. 60,000) in 0.1 ml of physiological sodium chloride solution. The degree of inflammatory swelling was determined by dorso-plantar measurement of the thickness of the paw [see Doepfner et al., Int. Arch. Allergy 12, 89 (1958)] in 1/100 mm; swelling was defined as the difference between the paw thickness 30 minutes after the dextran injection and the paw thickness before the dextran injection. For the dextran injection and the paw thickness measurements the animal was placed under light general anesthesia with ether (etherrausch).
The test compound was administered shortly before release of the allergic reaction in sodium chloride solution i.v. (0.5 ml/100 gm body weight), or 10 minutes before in 1% tylose 2000 p.o. (1 ml/100 gm body weight). Control animals received only the vehicle.
From the raw data thus obtained the percentage of swelling inhibition was calculated from the average paw swelling in the treated animals (T) and in the control animals (K) in accordance with the formula [formula] By graphic extrapolation the dose of test compound was determined which produced a 35% reduction of the swelling (ED35). For graphic representation of percentage inhibition values the standard error (sx --) was determined according to Fenner, Naturwissenschaften 19, 310 (1931).
For the anaphylactoid dextran reaction in the rat paw the following values were obtained at a dose of 100 mgm/kg: […]

Data set [2] is described as follows: Absorption: quotient ED35 p.o./ED35 i.v. from the dextran edema test. The note with it: in vivo; rat; the smaller the quotient, the better the absorption. The source says: For the efficacy of a pharmaceutical which is to be administered perorally, the absorption is of particular advantage. Conclusions regarding the absorption can be drawn from a comparison of the ED35 --values p.o. and i.v.; the smaller the quotient ED35 p.o./ED35 i.v., the better the absorption.

[3] abbreviates: iv, i.v., shortly before dextran, sodium chloride solution, read-out: ED35 i.v. (dose producing 35% reduction of the swelling).
[4] abbreviates: po, p.o., 10 minutes before dextran, 1% tylose, read-out: ED35 p.o. (dose producing 35% reduction of the swelling).

Consider `O=C(O)c1ccc2nc3ccccn3c(=O)c2c1` [A, 11-Oxo-11H-pyrido[2,1-b]quinazoline-2-carboxylic acid], for which the ED35 in data set [1] (setting [3]) is 2.1 mg/kg; in data set [1] (setting [4]), 4 mg/kg. Moreover, in data set [2], the ED35 p.o./i.v. ratio (absorption) is 1.9.
Take `O=C(O)c1cccc2nc3ccccn3c(=O)c12` [B, 11-Oxo-11H-pyrido[2,1-b]quinazoline-1-carboxylic acid]: the “% Inhibition of swelling” value in data set [1] is reported as 0%.
As for `O=C(O)c1cccc2c(=O)n3ccccc3nc12` [C, 11-Oxo-11H-pyrido[2,1-b]quinazoline-4-carboxylic acid], the “% Inhibition of swelling” value in data set [1] is listed as 10%.
On the same count and under the same terms, the result for `O=C(O)c1ccn2c(=O)c3ccccc3nc2c1` [D, 11-Oxo-11H-pyrido[2,1-b]quinazoline-7-carboxylic acid] reads 38%.
Regarding `O=C(O)c1ccc2nc3ccccc3c(=O)n2c1` [E, 11-Oxo-11H-pyrido[2,1-b]-quinazoline-8-carboxylic acid], the values for the ED35 in data set [1] (setting [3]) and in data set [1] (setting [4]) were 1.1 mg/kg and 4.4 mg/kg, respectively. Further, the ED35 p.o./i.v. ratio (absorption) in data set [2] turned out to be 4.
